What all share (assay type): cell-based
For one experiment, the target named is human TRPML1 (Homo sapiens, UniProt Q9GZU1). Put plainly: Fluorescent TRPML1 assay (Fluo4-AM calcium fluorescence, HEK-293 Trex cells). An outline of the steps:
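Tet-inducible HEK-293 Trex cells stably expressing surface-targeted mutant human TRPML1, induced with 0.5 ug/mL doxycycline overnight, loaded with Fluo4-AM and suspended in Ringer's with 10 mM calcium. Compounds tested from 20 μM to 6 nM final, half-log steps, in triplicate; fluorescence (ex 480/em 540) normalised to plate controls, EC50 by non-linear regression.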

A further experiment concerns the target T1, TRPML2 (Homo sapiens, UniProt Q8IZK6).
T1 construct: expressed in transfected cells
T1 sequence (Q8IZK6 1-566): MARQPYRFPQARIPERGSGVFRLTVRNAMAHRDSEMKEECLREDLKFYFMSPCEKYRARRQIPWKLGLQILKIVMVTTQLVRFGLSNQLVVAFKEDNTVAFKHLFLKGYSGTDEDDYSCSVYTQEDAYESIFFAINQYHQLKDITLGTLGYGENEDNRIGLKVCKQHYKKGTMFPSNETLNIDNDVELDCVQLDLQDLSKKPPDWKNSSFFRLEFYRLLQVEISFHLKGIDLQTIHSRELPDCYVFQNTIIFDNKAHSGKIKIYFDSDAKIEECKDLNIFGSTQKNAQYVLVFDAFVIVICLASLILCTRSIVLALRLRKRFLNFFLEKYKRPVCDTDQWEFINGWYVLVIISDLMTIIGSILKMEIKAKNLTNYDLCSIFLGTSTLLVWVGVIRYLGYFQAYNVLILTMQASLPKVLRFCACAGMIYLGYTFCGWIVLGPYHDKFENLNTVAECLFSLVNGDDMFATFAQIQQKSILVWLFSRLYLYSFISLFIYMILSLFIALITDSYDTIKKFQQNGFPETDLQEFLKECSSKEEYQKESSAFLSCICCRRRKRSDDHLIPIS
Briefly: Fluorescent TRPML2 assay (as for TRPML1). The protocol: HEK-293 Trex cells were stably transfected with a construct consisting of the human coding sequence for TRPML1 cloned into the tet-inducible plasmid pCDNA5 T/O. Mutations were introduced into the TRPML1 sequence to facilitate expression on the cell surface (Silvia Vergarajauregui, Rosa Puertollano Traffic. 2006 March; 7 (3): 337-353). Briefly, the cells are cultured in 150 mm round tissue culture dishes containing 20 mL of media. The day before the assay the cells are rinsed with DPBS —Ca—Mg and then treated briefly with Trypsin-EDTA. The Trypsin-EDTA is diluted with growth media, and cells are counted. 38×10^6 cells are re-plated into 150 mm round tissue culture dishes in media containing 0.5 ug/mL doxycycline to induce expression of hTRPML1.
The day of the experiment cells are lifted from the plates as above and collected by centrifugation. The cells are then suspended in dye loading buffer consisting of Ringer's solution supplemented with 0.1% Pluronic Acid and 1 micromolar Fluo4-AM dye. Cells are loaded for ˜60 minutes in the dark with occasional mixing. The cells are collected by centrifugation, the loading media aspirated, and the cells resuspended in 25 mL Ringer's solution and incubated ˜60 minutes in the dark. The cells are again collected by centrifugation, rinsed in Ringer's Solution and resuspended to 0.2×10^6 cells/mL in modified Ringer's solution containing 10 mM calcium.
Compounds are dissolved to a concentration of 10 millimolar with DMSO. Compound plates are created by dispensing compounds into 384 well black wall clear bottom plates (Greiner 781091). Positive and negative controls are included on each plate. Typically, different amounts of each compound are tested ranging from 100 nanoMoles (20 micromolar final concentration) decreasing in half-log steps to 31 picoMoles (6 nanomolar final concentration). Each concentration is typically tested in triplicate.
50 microliters of dye-loaded cells are dispensed into each well of the compound assay plate created above. The fluorescence in each well is then determined with an excitation wavelength of 480 nm and an emission wavelength of 540 nm using either a Molecular Devices SpectraMax multimode plate reader or a Hamamatsu FDSS/uCell plate imager.
The resulting fluorescence for each well is exported as an ascii file and loaded into our LIMS for analysis. The percent activity of each compound at each concentration is determined by comparison to the positive and negative control wells included in each plate.
Assays for TRPML2 and TRPML3 were performed as above for TRPML1, by substituting the appropriate TRPML2 or TRPML3 subtype for the TRPML1.
EC50 values were calculated using a non-linear regression of Prism. In the table, “A” indicates an EC50 of less than 100 nM, “B” indicates an EC50 range from 100 nM to 500 nM; “C” indicates an EC50 range from 500 nM to 2 μM; and “D” indicates an EC50 greater than 2 μM.

The target in a further experiment is T2, TRPML3 (Homo sapiens, UniProt Q8TDD5).
T2 construct: expressed in transfected cells
T2 sequence (Q8TDD5 1-553): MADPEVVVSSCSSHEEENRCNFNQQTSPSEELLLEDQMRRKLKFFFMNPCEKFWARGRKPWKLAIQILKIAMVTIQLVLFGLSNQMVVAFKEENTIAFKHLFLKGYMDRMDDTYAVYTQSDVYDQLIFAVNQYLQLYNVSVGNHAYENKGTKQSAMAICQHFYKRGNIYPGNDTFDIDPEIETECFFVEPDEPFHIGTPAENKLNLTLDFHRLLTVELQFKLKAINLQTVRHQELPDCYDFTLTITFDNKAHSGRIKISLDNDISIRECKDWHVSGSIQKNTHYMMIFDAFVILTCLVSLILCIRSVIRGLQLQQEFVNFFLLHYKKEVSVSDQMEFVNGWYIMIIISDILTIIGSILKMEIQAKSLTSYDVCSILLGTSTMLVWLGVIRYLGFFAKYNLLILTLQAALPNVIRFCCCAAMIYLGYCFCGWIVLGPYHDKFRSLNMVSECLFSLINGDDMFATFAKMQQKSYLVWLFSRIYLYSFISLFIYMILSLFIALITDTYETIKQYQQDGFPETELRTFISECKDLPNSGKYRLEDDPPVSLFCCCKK
Put plainly: Fluorescent TRPML3 assay (as for TRPML1). An outline of the steps: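 HEK-293 Trex cells with tet-inducible (0.5 ug/mL doxycycline, overnight) surface-targeted mutant channel, Fluo4-AM loaded, suspended in Ringer's with 10 mM calcium. Compounds tested 20 µM to 6 nM final, half-log steps, triplicate; fluorescence at ex 480/em 540 nm. EC50 by non-linear regression of percent activity versus plate controls.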

human TRPML1, sequence (Q9GZU1 whole entry L15A/L16A/L577A/L578A, form open): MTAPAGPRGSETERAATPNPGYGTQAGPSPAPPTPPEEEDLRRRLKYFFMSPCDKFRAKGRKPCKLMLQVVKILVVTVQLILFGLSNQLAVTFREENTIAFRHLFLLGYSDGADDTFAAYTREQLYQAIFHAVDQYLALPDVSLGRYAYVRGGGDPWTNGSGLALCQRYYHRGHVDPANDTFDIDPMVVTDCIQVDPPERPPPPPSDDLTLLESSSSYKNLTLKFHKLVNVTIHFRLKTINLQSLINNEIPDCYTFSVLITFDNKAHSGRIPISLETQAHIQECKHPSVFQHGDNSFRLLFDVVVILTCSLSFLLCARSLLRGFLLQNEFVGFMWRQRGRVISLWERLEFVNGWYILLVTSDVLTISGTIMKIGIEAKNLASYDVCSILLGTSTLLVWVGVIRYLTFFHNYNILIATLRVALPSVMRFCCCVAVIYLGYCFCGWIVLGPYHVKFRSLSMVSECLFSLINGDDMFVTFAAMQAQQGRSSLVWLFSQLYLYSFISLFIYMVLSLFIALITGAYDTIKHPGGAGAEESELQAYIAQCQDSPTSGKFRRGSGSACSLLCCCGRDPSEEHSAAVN

As to `CC(C)C(=O)N1CCN(c2ncnc3c2c(-c2ccccc2F)cn3-c2cc(C#N)n(C)n2)[C@@H](C)C1` [Compound 146, (S)-3-(5-(2-fluorophenyl)-4-(4-isobutyryl-2-methylpiperazin-1-yl)-7H-pyrrolo[2,3-d]pyrimidin-7-yl)-1-methyl-1H-pyrazole-5-carbonitrile], the EC50 at human TRPML1 (Table 3, compounds 101-177) was 100 to 500 nM; on TRPML2 (Table 3, compounds 101-177), 500 to 2000 nM; on TRPML3 (Table 3, compounds 101-177), 100 to 500 nM.
Turning to `C[C@@H]1CN(c2ncnc3c2c(C2CCC2)cn3-c2cc(C#N)ccn2)[C@@H](C)CN1C(=O)C(C)(C)C` [Compound 237, 2-(5-cyclobutyl-4-((2S,5R)-2,5-dimethyl-4-pivaloylpiperazin-1-yl)-7H-pyrrolo[2,3-d]pyrimidin-7-yl)isonicotinonitrile], the EC50 at human TRPML1 (Table 3, compounds 201-283) is 100 to 500 nM; on TRPML2 (Table 3, compounds 201-283), > 2000 nM; on TRPML3 (Table 3, compounds 201-283), 500 to 2000 nM.
As to `COC(C)(C)C(=O)N1CCN(c2ncnc3c2c(-c2ccccc2F)cn3-c2cc(C#N)ccn2)[C@@H](C)C1` [Compound 242, (S)-2-(5-(2-fluorophenyl)-4-(4-(2-methoxy-2-methylpropanoyl)-2-methylpiperazin-1-yl)-7H-pyrrolo[2,3-d]pyrimidin-7-yl)isonicotinonitrile], the half-maximal effective concentration (EC50) is < 100 nM at human TRPML1 (Table 3, compounds 201-283); 100 to 500 nM at TRPML2 (Table 3, compounds 201-283); 100 to 500 nM on TRPML3 (Table 3, compounds 201-283).
Turning to `COC(C)(C)C(=O)N1C[C@H](C)N(c2ncnc3c2c(C(F)(F)F)cn3-c2cccc(F)c2)C[C@H]1C` [Compound 223, 1-((2R,5S)-4-(7-(3-fluorophenyl)-5-(trifluoromethyl)-7H-pyrrolo[2,3-d]pyrimidin-4-yl)-2,5-dimethylpiperazin-1-yl)-2-methoxy-2-methylpropan-1-one], the concentration giving a half-maximal response (EC50) on human TRPML1 (Table 3, compounds 201-283) was < 100 nM; at TRPML2 (Table 3, compounds 201-283), > 2000 nM; on TRPML3 (Table 3, compounds 201-283), 100 to 500 nM.
Regarding `COC(C)(C)C(=O)N1C[C@H](C)N(c2ncnc3c2c(N2CCC2)cn3-c2cccc(F)c2)C[C@H]1C` [Compound 277, 1-((2R,5S)-4-(5-(azetidin-1-yl)-7-(3-fluorophenyl)-7H-pyrrolo[2,3-d]pyrimidin-4-yl)-2,5-dimethylpiperazin-1-yl)-2-methoxy-2-methylpropan-1-one], the half-maximal effective concentration (EC50) at human TRPML1 (Table 3, compounds 201-283) is < 100 nM; on TRPML2 (Table 3, compounds 201-283), 500 to 2000 nM; on TRPML3 (Table 3, compounds 201-283), 100 to 500 nM.
Take `C[C@@H]1CN(c2ncnc3c2c(N2CCC2)cn3-c2cc(C#N)ccn2)CCN1C(=O)C1(F)CC1` [Compound 270, (R)-2-(5-(azetidin-1-yl)-4-(4-(1-fluorocyclopropane-1-carbonyl)-3-methylpiperazin-1-yl)-7H-pyrrolo[2,3-d]pyrimidin-7-yl)isonicotinonitrile]: the concentration for a half-maximal effect (EC50) is < 100 nM at human TRPML1 (Table 3, compounds 201-283); 100 to 500 nM at TRPML2 (Table 3, compounds 201-283); < 100 nM on TRPML3 (Table 3, compounds 201-283).
In the case of `C[C@@H]1CN(c2ncnc3c2c(C2CCC2)cn3-c2cccc(C(F)(F)F)c2)[C@@H](C)CN1C(=O)CC(C)(C)C(F)(F)F` [Compound 262, 1-((2R,5S)-4-(5-cyclobutyl-7-(3-(trifluoromethyl)phenyl)-7H-pyrrolo[2,3-d]pyrimidin-4-yl)-2,5-dimethylpiperazin-1-yl)-4,4,4-trifluoro-3,3-dimethylbutan-1-one], the EC50 at human TRPML1 (Table 3, compounds 201-283) is 100 to 500 nM; at TRPML2 (Table 3, compounds 201-283), 500 to 2000 nM; at TRPML3 (Table 3, compounds 201-283), 500 to 2000 nM.
As to `[2H]C([2H])([2H])C([2H])(C(=O)N1C[C@H](C)N(c2ncnc3c2c(-c2ccccc2F)cn3-c2cc(C#N)ccn2)C[C@H]1C)C([2H])([2H])[2H]` (single isomer, unassigned) [Compound 233], the half-maximal effective concentration (EC50) was < 100 nM on TRPML2 (Table 3, compounds 201-283) and < 100 nM at TRPML3 (Table 3, compounds 201-283).
With `C[C@@H]1CN(c2ncnc3c2c(-c2ccccc2F)cn3-c2cc(C#N)ccn2)CCN1C(=O)C(C)(C)F` [Compound 126, (R)-2-(4-(4-(2-fluoro-2-methylpropanoyl)-3-methylpiperazin-1-yl)-5-(2-fluorophenyl)-7H-pyrrolo[2,3-d]pyrimidin-7-yl)isonicotinonitrile], the EC50 on human TRPML1 (Table 3, compounds 101-177) was < 100 nM; at TRPML2 (Table 3, compounds 101-177), 100 to 500 nM; on TRPML3 (Table 3, compounds 101-177), < 100 nM.
For `COC(C)(C)C(=O)N1CCN(c2ncnc3c2c(-c2ccccc2F)cn3-c2cc(C#N)ccn2)C[C@H]1C` [Compound 266, (R)-2-(5-(2-fluorophenyl)-4-(4-(2-methoxy-2-methylpropanoyl)-3-methylpiperazin-1-yl)-7H-pyrrolo[2,3-d]pyrimidin-7-yl)isonicotinonitrile], the concentration giving a half-maximal response (EC50) at human TRPML1 (Table 3, compounds 201-283) was < 100 nM; on TRPML2 (Table 3, compounds 201-283) it was 100 to 500 nM; on TRPML3 (Table 3, compounds 201-283), < 100 nM.
In the case of `CC(C)C(=O)N1C[C@H](C)N(c2ncnc3c2c(-c2ccccc2F)cn3-c2cc(C#N)ccn2)C[C@H]1C` [Compound 139, 2-(5-(2-fluorophenyl)-4-((2S,5R)-4-isobutyryl-2,5-dimethylpiperazin-1-yl)-7H-pyrrolo[2,3-d]pyrimidin-7-yl)isonicotinonitrile], the EC50 on human TRPML1 (Table 3, compounds 101-177) was < 100 nM; at TRPML2 (Table 3, compounds 101-177) it was < 100 nM; on TRPML3 (Table 3, compounds 101-177), < 100 nM.
With `COC(C)(C)C(=O)N1C[C@H](C)N(c2ncnc3c2c(-c2ccccc2F)cn3-c2cc(C#N)ccn2)C[C@H]1C` [Compound 232, 2-(5-(2-fluorophenyl)-4-((2S,5R)-4-(2-methoxy-2-methylpropanoyl)-2,5-dimethylpiperazin-1-yl)-7H-pyrrolo[2,3-d]pyrimidin-7-yl)isonicotinonitrile], the EC50 on human TRPML1 (Table 3, compounds 201-283) was < 100 nM; at TRPML2 (Table 3, compounds 201-283), < 100 nM; at TRPML3 (Table 3, compounds 201-283) it was < 100 nM.
Turning to `[2H]C([2H])([2H])[C@@H]1CN(c2ncnc3c2c(-c2ccccc2F)cn3-c2cc(C#N)ccn2)[C@@H](C)CN1C(=O)C(C)C` (single isomer, unassigned) [Compound 281], the concentration for a half-maximal effect (EC50) was in the range of 500 to 2000 nM on TRPML2 (Table 3, compounds 201-283) and 100 to 500 nM on TRPML3 (Table 3, compounds 201-283).
Take `[2H]C([2H])([2H])C(C(=O)N1C[C@H](C)N(c2ncnc3c2c(-c2ccccc2F)cn3-c2cc(C#N)ccn2)C[C@H]1C)C([2H])([2H])[2H]` (single isomer, unassigned) [Compound 234]: the EC50 is 100 to 500 nM on TRPML2 (Table 3, compounds 201-283) and < 100 nM at TRPML3 (Table 3, compounds 201-283).

The record behind these values is patent US20240398812A1 (Caraway Therapeutics, Inc., priority 2021, published 2024).
